Assay results published in US5277897A, “In vivo enhancement of cellular accumulation of lipophilic cationic organometallic compounds by reduction of intramembrane potential” (Brigham and Women's Hospital, priority 1992, dated 1994).

Experiments:
Assay type in all cases: cell-based
[1] = tested on: cultured chick heart cells; experiment: Influence of TPB and CCCP on (membrane potential-independent) accumulation of Tc-MIBI (FIG. 4); conditions: n=3-4
Experimental: FIG. 4. […] Preparations were incubated for the times indicated in 5.4 mM Ko control loading buffer containing tracer Tc-MIBI and TPB together (Δ) or in loading buffer containing Tc-MIBI alone (.quadrature.). For the latter incubation, TPB was added to the loading buffer at the arrow and cell content of Tc-MIBI subsequently determined (o). Under each condition, CCCP was added to the loading buffers as indicated by the arrows and cell content of Tc-MIBI determined ( , , ·). Each point is the mean ±SEM of 3 determinations.
(§1) Monolayers of spontaneously contractile chick ventricular myocardial cells were obtained from disaggregated 10-day old chick embryo hearts by a slight modification of previously published methods (Horres, C. R., et al., In Pinson, A. (ed.), The Heart Cell in Culture, Boca Raton, CRC Press, pp. 77-108 (1987)). Hearts were trimmed of connective tissue and atria, finely minced and serially exposed to 0.024% (w/v) trypsin in Ca^2+ - and Mg^2+ - free Earle's salt solution for 7 minutes at 37° C. Gentle trituration and agitation on an orbital shaker bath aided disaggregation. Cells released from the first exposure were discarded and cells aspirated from the next four exposures were then added to an equal volume of trypsin deactivating solution consisting of ice-cold culture medium. Cells were centrifuged at 400 g for 10 minutes, resuspended and combined in culture medium, counted with a hemocytometer and diluted to yield a suspension of 5×10^5 cells/ml. 12 ml of suspension were incubated in 100 mm plastic culture dishes containing 7 coverslips (25 mm diameter) placed on the bottom of each dish to serve as substrate for cell growth. Cells were maintained in a humidified atmosphere of 5% CO2 /95% air for 3-4 days yielding a confluent layer of spontaneously contractile myocytes on each coverslip.
Radioactive uptake methods have been described in detail (Piwnica-Worms, D., et al, Circ. (in press). Briefly, coverslips with confluent cells were removed from culture media and pre-equilibrated for 40-60 seconds in MEBSS buffer. Uptake and retention experiments were initiated by immersion of coverslips in 60 mm glass Pyrex dishes containing loading solution consisting of buffer with 0.1-0.6 nM [^99m Tc-MIBI] (0.01-0.4 Ci/nmole; 25-100 uCi/ml). Preparations were removed at various times and rinsed three times in 25 ml volumes of ice-cold (2° C.) isotope-free buffer for 8 seconds each to clear extracellular spaces. Preparations and aliquots of the loading buffer and stock solutions were counted in a well-type sodium iodide gamma counter after which cell protein on each coverslip was extracted in 1% sodium dodecylsulfate with 10 mM sodium borate and assayed by the method of Lowry (Lowry, O. H., et al., J. Biol. Chem. 193:265-275 (1951)). Tc-MIBI binding to glass coverslips without cells was used as an estimate of non-specific adhesion to the substrate ([…] obtained with cellular preparations); this value was subtracted from total uptake determinations to derive the cell-associated counts. Use of generator equilibrium equations (Lamson, M. L., et al., i J. Nucl. Med. 16:639-641 (1975)) allowed calculation of absolute moles of Tc-MIBI in solutions and preparations. Results were therefore expressed as fmol cellular Tc-MIBI/mg protein per nM extracellular Tc-MIBI concentration. […]

[2] = tested on: cultured chick heart cells; experiment: Effect of valinomycin on tetraphenylborate enhancement of Tc-MIBI accumulation in high Ko buffer (Table 1); conditions: for Tc-MIBI Net Uptake: n = 3
Experimental: as §1
Radioactive uptake methods have been described in detail (Piwnica-Worms, D., et al, Circ. (in press). Briefly, coverslips with confluent cells were removed from culture media and pre-equilibrated for 40-60 seconds in MEBSS buffer. Uptake and retention experiments were initiated by immersion of coverslips in 60 mm glass Pyrex dishes containing loading solution consisting of buffer with 0.1-0.6 nM [^99m Tc-MIBI] (0.01-0.4 Ci/nmole; 25-100 uCi/ml). Preparations were removed at various times and rinsed three times in 25 ml volumes of ice-cold (2° C.) isotope-free buffer for 8 seconds each to clear extracellular spaces. Preparations and aliquots of the loading buffer and stock solutions were counted in a well-type sodium iodide gamma counter after which cell protein on each coverslip was extracted in 1% sodium dodecylsulfate with 10 mM sodium borate and assayed by the method of Lowry (Lowry, O. H., et al., J. Biol. Chem. 193:265-275 (1951)). Tc-MIBI binding to glass coverslips without cells was used as an estimate of non-specific adhesion to the substrate ([…] obtained with cellular preparations); this value was subtracted from total uptake determinations to derive the cell-associated counts. Use of generator equilibrium equations (Lamson, M. L., et al., i J. Nucl. Med. 16:639-641 (1975)) allowed calculation of absolute moles of Tc-MIBI in solutions and preparations. Results were therefore expressed as fmol cellular Tc-MIBI/mg protein per nM extracellular Tc-MIBI concentration. Division of this value by the cell water space (6.9 ul/mg protein; Chiu, M. L., et al., J. Nucl. Med. (31:1646-1653(1990)) yields a nominal intracellular/extracellular Tc-MIBI accumulation ratio neglecting subcellular compartmentation of the agent.
To further explore the influence of TPB on any potential-independent accumulation of Tc-MIBI in myocytes, preparations were exposed to 130 mM K° 20 mM Clo buffer (Table 1). […] Equilibration of intracellular and extracellular spaces occurred in the presence of high K buffer plus valinomycin under all conditions (in/out ration ~1; P=NS) indicating the lack of any significant potential-independent membrane binding of Tc-MIBI.
Preparations were incubated in high Ko low Clo loading buffer +/- valinomycin (1 ug/ml) for 20 minutes in the presence of TPB (10^-5 M) or for 40 minutes in its absence to determine peak accumulation of Tc-MIBI under each condition. Values are the mean ±SEM. Tc-MIBI in/out ratios were obtained by dividing net uptake values by the cell water space of […] (Chiu, M. L., et al., J. Nucl. 31:1646-1653 (1990)). +p<0.01; * p<0.001 compared to net uptake in 130 mM Ko buffer.

[3] = tested on: cultured chick heart cells; experiment: Ko-dependence of Tc-MIBI net uptake in the absence and presence of TPB (FIG. 5); conditions: absence of TPB; more pronounced in presence of TPB
Experimental: FIG. 5. Ko -dependence of Tc-MIBI net uptake in the absence ( ) and presence (.quadrature.) of TPB (10^-5 M). Peak accumulation of Tc-MIBI was determined in preparations incubated in loading buffers containing the indicated Ko (equimolar replacement of NaCl by KCl) for 40 minutes (control) or for 20 minutes (+TPB). Ko -induced cell volume changes were prevented by addition of bumetanide (10^-5 M) to each buffer. Each point is the mean ±SEM of 3 determinations. Solid lines have no theoretical significance. The dashed line represents the Tc-MIBI content expected at each Ko assuming an intracellular/extracellular Tc-MIBI concentration ratio equal to the Ki /Ko ratio.
Monolayers of spontaneously contractile chick ventricular myocardial cells were obtained from disaggregated 10-day old chick embryo hearts by a slight modification of previously published methods (Horres, C. R., et al., In Pinson, A. (ed.), The Heart Cell in Culture, Boca Raton, CRC Press, pp. 77-108 (1987)). Hearts were trimmed of connective tissue and atria, finely minced and serially exposed to 0.024% (w/v) trypsin in Ca^2+ - and Mg^2+ - free Earle's salt solution for 7 minutes at 37° C. […] Cells were centrifuged at 400 g for 10 minutes, resuspended and combined in culture medium, counted with a hemocytometer and diluted to yield a suspension of 5×10^5 cells/ml. […]

[C-]#[N+]CC(C)(C)OC.[C-]#[N+]CC(C)(C)OC.[C-]#[N+]CC(C)(C)OC.[C-]#[N+]CC(C)(C)OC.[C-]#[N+]CC(C)(C)OC.[C-]#[N+]CC(C)(C)OC.[Tc] [Tc-MIBI, hexakis(methoxyisobutylisonitrile)technetium(I)]
Tc-MIBI 2 min uptake ([1]; +5×10^-6 M TPB, 5 seconds pre-incubation): 20.6±0.43 fmol Tc-MIBI/mg protein per nM
Tc-MIBI 2 min uptake ([1]; +10^-7 M TPB, 5 seconds pre-incubation): 3.37±0.57 fmol Tc-MIBI/mg protein per nM
Tc-MIBI 2 min uptake ([1]; control (no TPB)): 1.23±0.15 fmol Tc-MIBI/mg protein per nM
Tc-MIBIi/Tc-MIBIo (in/out ratio) ([2]; 130 Ko (no TPB)): 9.5
Tc-MIBI Net Uptake ([2]; 130 Ko (no TPB), 40 minutes): 65.3 ± 5.3 fmol/mg protein/nMo
Tc-MIBIi/Tc-MIBIo (in/out ratio) ([2]; 130 Ko + TPB 10^-5 M): 13.6
Tc-MIBIi/Tc-MIBIo (in/out ratio) ([2]; 130 Ko + TPB 10^-5 M + valinomycin 1 ug/ml): 1.1
Tc-MIBI Net Uptake ([2]; 130 Ko + TPB 10^-5 M + valinomycin 1 ug/ml, 20 minutes, p<0.001 vs 130 mM Ko): 7.6 ± 0.8 fmol/mg protein/nMo
Tc-MIBI Net Uptake ([2]; 130 Ko + TPB 10^-5 M, 20 minutes, p<0.01 vs 130 mM Ko): 93.9 ± 4.4 fmol/mg protein/nMo
Tc-MIBIi/Tc-MIBIo (in/out ratio) ([2]; 130 Ko + valinomycin 1 ug/ml): 0.9
Tc-MIBI Net Uptake ([2]; 130 Ko + valinomycin 1 ug/ml, 40 minutes, p<0.001 vs 130 mM Ko): 6.2 ± 0.3 fmol/mg protein/nMo
in/out ratio, high K buffer plus valinomycin ([2]; all conditions, P=NS): ~ 1
nominal intracellular/extracellular accumulation ratio vs Ki/Ko ratio [3]: greater than those expected from the Ki /Ko ratios in the absence of TPB
